From patent publication US5739334A (Istituto Ricerca Francesco Angelini S.p.A., priority 1992, dated 1998)

Columns and labels:
alpha 1 = experiment: Chemical bond studies: interference with alpha 1 receptor (% inhibition); assay type: binding; settings: table 2
serotonin 2 = experiment: Chemical bond studies: interference with serotonin 2 receptor (% inhibition); assay type: binding; settings: table 2
DL50 = assay type: in vivo; set-up: unit not given beside the values; settings: species, route and unit not given
[1] = attributed to action on adrenergic receptors (alpha 1 and alpha 2); cited from earlier work
[2] = Burger's Medicinal Chemistry, 4th ed. (1981); cited from earlier work

SMILES	alpha 1 (% inhibition) (alpha 1; C = 10^-5 M) [%]	alpha 1 (% inhibition) (alpha 1; C = 10^-7 M) [%]	serotonine 2 (% inhibition) (serotonin 2; C = 10^-5 M) [%]	serotonine 2 (% inhibition) (serotonin 2; C = 10^-7 M) [%]	DL50 (DL50)	sporadic side effects [1]	clinical actions [2]
CC(CCn1nc2ccccn2c1=O)N1CCN(c2cccc(Cl)c2)CC1 (centres unmarked) [(I) R = R" = R"' = H; R' = CH3, 2-[3-[4-(3-chlorophenyl)-1-piperazinyl]-3-methylpropyl]-1,2,4-triazole-[4,3-a]-pyridin-3(2H)-one]	91	26	100	59	≤ 300	–	–
CC1CN(CCCn2nc3ccccn3c2=O)CCN1c1cccc(Cl)c1 (centres unmarked) [(I) R = R' = R" = H; R"' = CH3, 2-[3-[4-(3-chlorophenyl)-1-(3-methyl)-piperazinyl]-propyl]-1,2,4-triazole-[4,3-a]-pyridin-3(2H)-one]	85	20	98	68	≤ 600	–	–
CC1CN(c2cccc(Cl)c2)CCN1CCCn1nc2ccccn2c1=O (centres unmarked) [(I) R = R' = R"' = H; R" = CH3, 2-[3-[4-(3-chlorophenyl)-1-(2-methyl)-piperazinyl]-propyl]-1,2,4-triazole-[4,3-a]-pyridin-3(2H)-one]	96	37	100	69	300	–	–
CC(CN1CCN(c2cccc(Cl)c2)CC1)Cn1nc2ccccn2c1=O (centres unmarked) [(I) R' = R" = R"' = H; R = CH3, 2-[3-[4-(3-chlorophenyl)-1-piperazine]-2-methylpropyl]-1,2,4-triazole[4,3-a]-pyridin-3-(2H)-one]	88	27	100	62	≤ 600	–	–
O=c1n(CCCN2CCN(c3cccc(Cl)c3)CC2)nc2ccccn12 [trazodone]	–	–	–	–	≥ 200	hypotension and priapism	diazepine-like clinical actions
